Measurements as given in patent US10967000B2, “Cell-penetrating peptide, conjugate comprising same and composition comprising same” (GemVax & KAEL Co., Ltd., priority 2012, dated 2021).
No end group written: not given here. *: point of attachment. FITC = O=C1OC2(c3ccc(O)cc3Oc3cc(O)ccc32)c2ccc(NC(=S)*)cc21

Columns and labels:
Jurkat cell line = test: Flow cytometry after chemical treatment, Jurkat; type: cell-based, human; details: all of the chemical treatment
Huh7 cell line = test: Flow cytometry of cell penetrating property in Huh7 cell line; type: cell-based, human
Procedure: (§1) The cell line was divided in a 6-well plate and cultured in a medium containing 10% fetal bovine serum (Invitrogen, USA), 100 μg/ml penicillin, 100 units/ml streptomycin at 37° C., 5% CO2 incubator for 12 hours. After washing the cell line with PBS, starvation was induced in a Minimum Essential Medium for an hour. 20 uM of each carrier peptide was treated and cultured at 37° C. for an hour. After repeating the step of washing the cells with PBS for three times, Trypsin-EDTA was treated form 10 mins at 37° C. to separate the carrier peptide on the outside of the cell. cells were collected with refrigerated PBS and centrifugation was performed to repeat the step of washing the cells for three times. After then, the cells were suspended in 0.5 ml of PBS containing 4% Paraformaldehyde and fluorescence of the cells was analyzed using FACS Calibur (Becton Dickinson). The cellular uptake aspect of control and various peptides combined with FITC was compared and analyzed by MFI (Mean Fluorescence Intensity).
To investigate cell penetrating property of PEP1, flow cytometry was performed in Huh7 cell line treated with PEP1. The analytical methods used were same as described in above (1) HeLa cell line analysis. […] (FIG. 9 and FIG. 10)

HepG2 cell line = test: Flow cytometry depending on concentration, HepG2; type: cell-based, human; details: HepG2, 50 μM
Procedure: (§2) Cells were cultured at 37° C., 5% CO2 incubator and grown to 90˜100% confluence. The confluence. The medium was removed and washed with PBS, 1 mL of OPTI-MEM was added to each well and cultured at 37° C., 5% CO2 incubator for an hour for cell starvation. After washing with OPTI-MEM once, cells were treated with peptide in OPTI-MEM (concentration of […]) and FITC (concentration of 10 μM), cultured at 37° C., 5% CO2 incubator. After removing the medium, cells were washed with 1×PBS three times and harvested using Trysin/EDTA. The cellular uptake of FITC and the rest of FITC-conjugated peptide was compared and analyzed with untreated cell cells as a control.
(§3) Cell penetrating property of PEP1 was investigated by treating PEP1 with various cell various cell lines depending on concentrations and time. Specific analytical methods followed the methods described in Example 2. […] In the case of HepG2 cell line, cell penetrating property of TAT was increased whereas that of PEP1 was decreased at a concentration of 50 μM. […] When observing cell penetrating property of the peptide depending on time, the cell penetrating property was increased in Huh7, MCF7 and HeLA cell lines. Especially, in MCH7 cell line when 5 μM of the peptide was treated, cell penetrating property was increased 10 times higher in all time (FIG. 24 to FIG. 26)

Huh7, bmDC, CHO, COS7 = test: Flow cytometry depending on concentration in various cell lines; type: cell-based
Procedure: as §2, §3

CHO and HepG2 cells = test: Uptake analysis of pep1-FITC in vitro by flow cytometry (primary experiment); type: cell-based
Procedure: Flow cytometry and Confocal microscopy analysis were performed to compare the degree of cellular uptake among differentcell lines treated with pep1 (SEQ ID NO: 1) and the previously known PTD, TAT ([…]) (SEQ ID NO: 10) of HIV.
as §2

human T lymphocyte = test: FACS of cell penetrating property in human T lymphocyte; type: cell-based
Procedure: as §1
To investigate cell penetrating property of PEP1, the peptide was treated in human T lymphocyte, and FACS (Fluorescence-activated sell sorting) was performed as flow cytometry analysis. The analytical method used was same as described in above (1) HeLa cell line analysis. […] (FIG. 11 and FIG. 12)

hPBMC = test: Cell penetrating property after treatment with various antibodies; type: cell-based, human
Procedure: The fact that HSP70/90 plays an important role in cell penetrating property of Pep1 was analyzed using HSP70/90 antibody. Antibodies of GAPDH, HSP70, HSP90 and enolase were treated in PBMC separated from human blood, lymphocyte, and Jurkat to perform flow cytometry. Antibodies of GAPDH and enolase were used as control.
(§4) To compare and analyze the cell penetrating property of the peptide using various various antibodies, HSP70, enolase, GAPDH (santacruz), HSP90 antibodies were used. Cells were treated with heparin (10 μg/ml), methyl beta cyclodextrin (5 mM), nocodazole (20 μM), Brefeldin A (10 μM), cytochalasin F (5 μM) or choloroqune (100 μM) an hour before cells were cultured by the peptide. After then, cells were washed with PBS, peptide treatment was performed by flow cytometry analysis as the same method described in Example 2. Anti-HSP70, anti-Enolase and anti-GAPDH antibodies were purchased from Santacruz and anti-HSP90 antibody as purchased from Abcam. To analyze the role of each protein in penetration into cells, cells were treated with antibodies corresponding to the proteins with the same method.

human PBMC [1] = test: Flow cytometry after chemical treatment, human PBMC; type: cell-based; details: whole PBMC, chemical treatment an hour before peptide
Procedure: With PBMC separated from human blood, chemical treatment utilization analysis was performed to verify a mechanism of cell penetration. Concentration of chemical treatment was decided based on the data reported in JBC(278(36), 34141-34149 in […]. OPTI-MEM was treated with chemical treatment and washed with PBS an hour before PEP1 peptide was treated and flow cytometry analysis was performed.
as §4

human PBMC [2] = test: Flow cytometry of cell penetrating property in human PBMC; type: cell-based
Procedure: PBMC (peripheral blood mononuclear cell) and lymphocytes were prepared from the human blood samples (50 ml) collected from healthy subjects using Biocoll Separating Solution (Biochrom AG, Berlin, Germany).
PBMC separated from human blood was used to treat the peptide depending on concentrations, temperature and time and to analyze the cell penetrating property of the peptide. […] Depending on concentrations, cell penetrating property of PEP1 was increased in both lymphocytes and the monocytes. […] (FIG. 32 to FIG. 34)

[3] = test system: THP1 (Human mononuclear cell line); test: Flow cytometry of cell penetrating property, THP1; type: cell-based
From the text: (§5) Jurkat (Human T cell line), THP1 (Human mononuclear cell line), Raji (Human B cell line), K562 cell line (Human Leukemia cell line) were used as enriched cell line to treat the peptide depending on concentrations, temperature and time and to analyze the cell penetrating property of the peptide. […] There was no difference in cell penetrating property of PEP1 in all cell lines depending on temperature.

[4] = test system: Huh7, MCF7 and HeLA cell lines; test: Flow cytometry depending on time; type: cell-based, human
Procedure: as §2, §3

Jurkat, THP1, Raji, K562 = test: Cell penetrating property depending on concentration, temperature and time in enriched cell lines; type: cell-based, human
From the text: as §5

MCF7 cell line = test: Flow cytometry depending on concentration and time, MCF7; type: cell-based, human
Procedure: as §2, §3

Raji (Human B cell line) = test: Flow cytometry of cell penetrating property, Raji; type: cell-based
From the text: as §5

[5] = test system: K562 cell line (Human Leukemia cell line); test: Flow cytometry of cell penetrating property, K562; type: cell-based
From the text: as §5

Huh7, HepG2, CHO, bmDC = test: Flow cytometry and confocal analysis depending on location of FITC; type: cell-based; details: fluorescence microscope
Procedure: as §1
To investigate cell penetrating property of PEP1 in various cell lines, flow cytometry and Confocal microscope analysis were performed using a conjugate of PEP1 combined with FITC at N, and C-terminal of the peptide. The analytical method used was same as described in above (1) HeLa cell line analysis. The cell lines used were Huh7, HepG2, CHO, bmDC. […] (FIG. 14)

luciferase in Huh7 cells = test: Luciferase assay with siRNA-CPP conjugates, Huh7; type: cell-based, human; details: Huh cell line, siRNA 400 nM, 16 hours
Procedure: Huh7 (human hepatocellular carcinoma) cells obtained from ATCC was cultured in a RPMI 1640 medium (Hyclon) containing 10% fetal bovine serum (Invitrogen Co., Carlsbad, Calif., USA), […] L-glutamine, 100 ug/ml penicillin and 100 units/ml of streptomycin at 37° C., 5% CO2 incubator.
(§6) 2×10^5 of Huh7 cells were inserted into each well of a 24 well plate and were grown. Transient transfection on the cells was performed using 2 ug of luciferase objective DNA and lipofectamin 2000 (Invitrogen Co., Carlsbad, Calif., USA). After 4 hours, lipofectamin 2000 was perfectly washed with PBS several times; siRNA of final concentration of […] was treated in 500 ul of Opti-MEM (Invitrogen Co., Carlsbad, Calif., USA) and was reacted at 37° C. incubator for 16 hours. To terminate the reaction, cells were washed with PBS and proteins were lysed using Reporter Lysis Buffer (Progema Co., Madison, Wis., USA) solution and the luminescence was measured by luminometer (Turner BioSystem, Sunnyvale, Calif., USA) using luciferase reagent (Promega Co., Madison, Wis., USA). Efficacy of siRNA was corrected by Bradford protein assay.

luciferase in CHO cell = test: Luciferase assay with siRNA-CPP conjugates, CHO; type: cell-based
Procedure: as §6
To verify cell penetrating property of pep1, siRNA for luciferase purpose was produced produced and luciferase activation was measured using Huh7 (human hepatocelular carcinoma) cells and CHO cell line. The result verified that activation of penetratine and pep1 in siRNA combined with luciferase was reduced approx. 28%, 20% compared with penetratin and pep1 in siRNA combined with control in Huh cell line. […]

## EARPALLTSRLRFIPK (listed as Homo sapiens) [pep1]
Jurkat cell line
  effect of chemical treatment on cell penetrating property: tendency to suppress
Huh7 cell line
  cell penetrating property compared with TAT and control: lower than that of TAT but higher than that of control
HepG2 cell line
  cell penetrating property at a concentration of 50 μM: decreased
Huh7, bmDC, CHO, COS7
  cell penetrating property depending on concentrations: tendency to increase
CHO and HepG2 cells
  cell penetrating ability depending on position of FITC: best when FITC was conjugated with lysine residue in C terminal
CHO and HepG2 cells; FITC-labelled peptides
  cell penetrating ability compared with TAT: better cell penetrating ability than TAT
Human T lymphocyte
  cell penetrating property, times higher than HIV derived TAT: 6 times
  cell penetrating property, times higher than control FITC: 25 times
hPBMC
  absorption after treatment with HSP70 and HSP90 specific antibodies: remarkably reduced
Human PBMC [1]
  effect of chemical treatment (MatCD and others) on cell penetrating property: tend to be suppressed
Human PBMC [2]; lymphocytes
  cell penetrating property, increase (times): 1.8 times
Human PBMC [2]; lymphocytes and monocytes
  cell penetrating property depending on concentrations: increased
  cell penetrating property depending on time: tendency to increase
Human PBMC [2]; monocytes, 5 hours
  increase of cell penetrating property compared to TAT: more than 20%
Human PBMC [2]; whole PBMC
  cell penetrating property depending on concentrations and time: increased
  cell penetrating property, times higher than TAT: 1.4 times
[3]
  cell penetrating property depending on time: decreased over time
[4]
  cell penetrating property depending on time: increased
Jurkat, THP1, Raji, K562; all cell lines
  cell penetrating property depending on concentrations: tendency to increase
  cell penetrating property depending on temperature: no difference
Jurkat, THP1, Raji, K562; cell lines other than THP1
  increase of cell penetrating property depending on time: more than 3 times
MCF7 cell line; MCF cell line
  cell penetrating property, times higher than TAT: 4 times
MCF7 cell line; MCH7 cell line, 5 μM of the peptide, comparator not stated
  cell penetrating property, times higher in all time: 10 times

## YGRKKRRQRRR [TAT, reference compound]
Jurkat cell line
  effect of chemical treatment on cell penetrating property: no effect
HepG2 cell line
  cell penetrating property at a concentration of 50 μM: increased
Huh7, bmDC, CHO, COS7
  cell penetrating property depending on concentrations: tendency to increase
Raji (Human B cell line)
  cell penetrating property, TAT compared with PEP1: higher cell penetrating property than PEP1
[5]
  cell penetrating property, TAT compared with PEP1: higher cell penetrating property than PEP1
hPBMC
  absorption after treatment with HSP70 and HSP90 specific antibodies: not affected
Human PBMC [1]
  effect of chemical treatment (MatCD and others) on cell penetrating property: increased
Human PBMC [2]; whole PBMC
  cell penetrating property depending on concentrations and time: increased

## pep1-FITC: pep1 labeled with FITC at the C-terminal (lysine) (EARPALLTSRLRFIPK(FITC); listed as Homo sapiens)
Huh7, HepG2, CHO, bmDC
  penetration into the cytoplasm, C-terminal vs N-terminal FITC: higher cell penetrating property to penetrate into the cytoplasm than PEP1 combined with FITC at N-terminal
hPBMC
  absorption after treatment with HSP70 and HSP90 specific antibodies: remarkably reduced
hPBMC; control antibodies
  absorption after treatment with GAPDH or Enolase specific antibodies: no effect

## siLuc conjugation with Mercaptoacetyl-Ahx-EARPALLTSRLRFIPK (EARPALLTSRLRFIPK-OH; not fully specified (N-terminus); printed as Mercaptoacetyl-Ahx-EARPALLTSRLRFIPK; also: conjugated to luciferase siRNA; UniProt O14746 611-626, looked up, fragment) [siLuc-pep1, luciferase siRNA conjugated to pep1 via thiol-maleimide]
Luciferase in Huh7 cells
  reduction of luciferase activation compared with the same peptide in siRNA combined with control: ~20%
Luciferase in CHO cell
  inhibition of luciferase activity: about 30%

## siLuc conjugation with Mercaptoacetyl-Ahx-LRALPKRPFISRLTEA [siLuc-scrambled pep1]
Luciferase in Huh7 cells
  reduction of luciferase activation compared with the same peptide in siRNA combined with control: no significant difference

## siLuc conjugation with Mercaptoacetyl-Ahx-RQIKIWFQNRRMKWKK [siLuc-Penetratin]
Luciferase in Huh7 cells
  reduction of luciferase activation compared with the same peptide in siRNA combined with control: approx. 28%

## siLuc conjugation with Mercaptoacetyl-Ahx-YGRKKRRQRRR (not fully specified (N-terminus); printed as Mercaptoacetyl-Ahx-YGRKKRRQRRR; also: conjugated to luciferase siRNA; UniProt P04608 47-57, looked up, fragment) [siLuc-Tat(47-57)]
Luciferase in Huh7 cells
  reduction of luciferase activation compared with the same peptide in siRNA combined with control: no significant difference
